Patent US20040186117A1, “Marker” (priority 2001, published 2004)
Values joined by “and” are separate entries in the source; they are usually repeats but may differ in a detail not shown here. Identical values can stand only once. “Also recorded” adds a separate entry of the source.

Tests used:
[1] = test system: c-FOS protein in HT29 cells; conditions: for effect on c-FOS protein level: HT29, 50 μM
[2] = test system: RB phosphorylation (Ser780, Ser608) in HT29 cells; experiment: Western blotting for RB phosphorylation in HT29 cells; format: cell-based, human; conditions: for time of loss of RB phosphorylation after exposure: HT29, 50 μM; for effect on RB phosphorylation: HT29, equitoxic (3×96 h IC50) concentration, 24 h
Text: (§1) This antibody was selected as a representative marker for all tested phosphorylation sites of RB (see Section 2). […] A general loss of RB phosphorylation is indicated by a switch from a broad band to a thin, more rapidly migrating band for total RB (see Section 2, FIG. 9).
(§2) Samples were harvested for western blotting or for cell cycle analysis by FACS. […] Since validating the original phospho-specific antibodies, a Ser608 antibody became available from Dr Sibylle Mittnacht. This site is potentially phosphorylated by CDK4/cyclin D1 and CDK2/cyclin A (Zarkowska and Mittnacht, J. Biol Chem (1997) 9:272 12738-46).

cyclin D1 in HT29 cells = experiment: Western blotting for cyclin D1 expression in HT29 cells; conditions: HT29, 50 μM
[3] = test system: ERK1/2 phosphorylation in HT29 cells; experiment: Western blotting for phospho-ERK1/2 in HT29 cells; format: cell-based, human; conditions: for effect on ERK phosphorylation: HT29, equitoxic (3×96 h IC50) concentration, 24 h
[4] = test system: RB phosphorylation (Ser780) in KM12 cells; conditions: KM12, 50 μM
Text: as §1, §2

[5] = test system: ELK-1 phosphorylation (Ser383) in HT29 cells
[6] = test system: ERK1/2 phosphorylation in KM12 cells; experiment: Western blotting for phospho-ERK1/2 in KM12 cells; format: cell-based, human
[7] = HT29, 10 μM with 50 μM R-roscovitine

Q: Which “effect on c-FOS protein level” value [1] does the source give for `CC[C@H](CO)Nc1nc(NCc2ccccc2)c2ncn(C(C)C)c2n1` (racemic) [roscovitine] here?
A: increased levels

Q: And the “time of loss of RB phosphorylation after exposure” value [2]?
A: 24 h

Q: And the “effect on cyclin D1 expression” value (cyclin D1 in HT29 cells)?
A: decreased levels

Q: Which results are given for `CC[C@H](CO)Nc1nc(NCc2ccccc2)c2ncn(C(C)C)c2n1` [R-roscovitine, 2-(R)-(1-ethyl-2-hydroxyethylamino)-6-benzylamino-9-isopropylpurine]?
A: phospho-ERK1/2 level at 24 h ([3]; HT29, 50 μM time course): remaining above basal levels; time of onset of induction of ERK phosphorylation ([3]; HT29, 50 μM time course): 1 h; time at which induction of ERK phosphorylation was observed ([3]; HT29, 50 μM, experiment with U0126 (FIG. 5B)): 4 to 24 h; effect on ERK phosphorylation [3]: induced ERK phosphorylation; effect on phosphorylated ERK1/2 ([3]; HT29, increasing concentrations, 24 h exposure): increase of phosphorylated ERK1/2; time of loss of RB phosphorylation after exposure [4]: 12 to 24 h; effect on c-FOS protein level [1]: induction of c-FOS protein; time at which an increase of c-FOS protein was detected ([1]; HT29, 50 μM time course): 12 to 24 h; time of loss of RB phosphorylation after exposure [2]: 12 to 24 h and 24 h; effect on RB phosphorylation [2]: inhibited RB phosphorylation; effect on cyclin D1 expression (cyclin D1 in HT29 cells): inhibited the expression; effect on ELK-1 phosphorylation ([5]; HT29, 50 μM, after 4 h): strong induction; kinetics of induction of ERK phosphorylation compared with HT29 ([6]; KM12, 50 μM time course): slower kinetics; effect on phosphorylated ERK1/2 ([6]; KM12, increasing concentrations, 24 h exposure): increase of phosphorylated ERK1/2

Q: `N#CC(=C(/N)Sc1ccccc1N)/C(C#N)=C(\N)Sc1ccccc1N` [U0126, reference compound] was tested. Which “effect on R-roscovitine-induced ERK phosphorylation” value [3, 7] did it give?
A: prevented the induction

Q: What about the “effect on R-roscovitine-induced increase in c-FOS” value [1, 7] of the same compound?
A: blocked

Q: What about the “effect on R-roscovitine-induced ELK-1 phosphorylation” value [5, 7] of the same compound?
A: blocked the phosphorylation

Q: For `O=C1Cc2c([nH]c3ccc([N+](=O)[O-])cc23)-c2ccccc2N1` [alsterpaullone], which “effect on ERK phosphorylation” value [3] is on record?
A: fails to induce; also recorded: no effect upon ERK

Q: And the “effect on RB phosphorylation” value [2]?
A: failed to inhibit RB phosphorylation

Q: How did the “effect on ERK phosphorylation” value [3] turn out when `CN1CC[C@H](c2c(O)cc(O)c3c(=O)cc(-c4ccccc4Cl)oc23)[C@H](O)C1` [flavopiridol] was run?
A: fails to induce; also recorded: no effect upon ERK

Q: What about the “effect on RB phosphorylation” value [2] of the same compound?
A: failed to inhibit RB phosphorylation

Q: How did the “effect on ERK phosphorylation” value [3] turn out when `CC(C)[C@H](CO)Nc1nc(Nc2cccc(Cl)c2)c2ncn(C(C)C)c2n1` [purvalanol A] was run?
A: fails to induce; also recorded: failed to induce ERK phosphorylation

Q: What about the “effect on RB phosphorylation” value [2] of the same compound?
A: inhibited RB phosphorylation
